# Columns and labels:
# H22 liver cancer = test: Inhibition of KM mice-transplanted tumor of H22 liver cancer; type: in vivo
# Procedure: (1) Animal Kunming mice, half male and half female, body weight 16˜27 g.
# Cell Lines H22 cell lines were mice liver cancer cells, and were subjected to suspension growth in RPMI-1640 media containing 10% calf serum, 100 U·ml^−1 penicillin, 100 μg·ml^−1 streptomycin, and cultured in an incubator at 37° C. under 5% CO2, followed by changing the medium and subculturing every two or three days.
# (§1) Cell Culture H22 cells in exponential phase of growth were collected, centrifugated at 1000 rpm for 5 min, and washed twice. Viable cells were counted by trypan blue staining. The cells were quickly inoculated in abdominal cavity of KM mice, and after 7˜10 days, ascites were drawn and subcutaneously inoculated at the left forelimb armpit of mice at 0.2 ml/animal (containing about 2×10^7 cells). When tumor grew to 1 cm×1 cm×1 cm, mice were used in experiment. Mice tumors were aseptically stripped, and washed with Hank's solution thrice, to remove blood, fat and necrotic tissues. Tumors were cut to broken pieces of 1 mm×1 mm×1 mm, and washed with Hank's solution twice, to which physiological saline was added at a ratio of (1 g:3 ml), and then ground in a glass homogenizer and filtered by 80-100 mesh sieve to make a suspension of single cell. Viable cells were counted by trypan blue staining.
# (§2) On the second day after inoculation, a dosage of 0.2 ml·10 g^−1 was administrated by intravenous injection (iv), once a day. When the average tumor weight in negative group was more than 1.0 g (tumor volume being about 0.5 cm^3), the experiment was stopped, and mice were sacrificed by cervical vertebrae removal and weighed. Tumors were stripped to calculate inhibitory rate.
# EMT-6 breast cancer = test: Inhibition of BABLc mice-transplanted tumor of EMT-6 breast cancer; type: in vivo; details: for Inhibitory rate / Tumor weight: 9 days
# Procedure: (1) Animal BABLc mice, ♀, body weight 17˜21 g
# Cell Lines EMT-6 cell lines were mice breast cancer cells, and grew adhering to the wall in RPMI-1640 complete media containing 10% calf serum, 1 mmol/L glutamine, 100 U·ml^−1 penicillin and 100 μg·ml^−1 streptomycin, and were cultured in an incubator at 37° C. under 5% CO2, followed by changing the medium and subculturing every two or three days.
# as §1, with “Viable” for “Cell Culture H22 cells in exponential phase of growth were collected, centrifugated at 1000 rpm for 5 min, and washed twice. Viable”, “Cell suspension was” for “The cells were quickly inoculated in abdominal cavity of KM mice, and after 7˜10 days, ascites were drawn and”, “1×10^7 cells), and after” for “2×10^7 cells). When”
# as §2, with “administrated to each group” for “administrated”, “intraperitoneal” for “intravenous”, “(ip) for successive 9 days,” for “(iv),”, “the” for “the average”, “g(tumor” for “g (tumor”
# [1] = compared with the negative control group, obvious in the dosage groups of 10 mg/kg-60 mg/kg
smiles,measurement,setting,value
O=C(/C=C/c1ccc(O)c(O)c1)O[C@@H]1C[C@](O)(C(=O)O)C[C@@H](O)[C@H]1O [Chlorogenic acid of the present invention],Inhibitory rate,H22 liver cancer; 1 mg·kg^−1 iv once a day,8.8%
same,Tumor weight,H22 liver cancer; 1 mg·kg^−1 iv once a day,2.141 ± 0.333 g
same,Inhibitory rate,H22 liver cancer; 5 mg·kg^−1 iv once a day,24.7%
same,Tumor weight,H22 liver cancer; 5 mg·kg^−1 iv once a day,1.768 ± 0.667 g
same,Inhibitory rate,H22 liver cancer; 10 mg·kg^−1 iv once a day,46.3%
same,Tumor weight,H22 liver cancer; 10 mg·kg^−1 iv once a day,1.261 ± 0.388 g
same,Inhibitory rate,H22 liver cancer; 20 mg·kg^−1 iv once a day,54.8%
same,Inhibitory rate,H22 liver cancer; 30 mg·kg^−1 iv once a day,67.9%
same,Tumor weight,H22 liver cancer; 30 mg·kg^−1 iv once a day,0.754 ± 0.071 g
same,Inhibitory rate,H22 liver cancer; 40 mg·kg^−1 iv once a day,72.2%
same,Tumor weight,H22 liver cancer; 40 mg·kg^−1 iv once a day,0.653 ± 0.238 g
same,Inhibitory rate,H22 liver cancer; 50 mg·kg^−1 iv once a day,57.5%
same,Tumor weight,H22 liver cancer; 50 mg·kg^−1 iv once a day,0.998 ± 0.207 g
same,Inhibitory rate,H22 liver cancer; 60 mg·kg^−1 iv once a day,42.9%
same,Tumor weight,H22 liver cancer; 60 mg·kg^−1 iv once a day,1.341 ± 0.356 g
same,Inhibitory rate,H22 liver cancer; 70 mg·kg^−1 iv once a day,31.9%
same,Inhibitory rate,H22 liver cancer; 80 mg·kg^−1 iv once a day,24.1%
same,Tumor weight,H22 liver cancer; 80 mg·kg^−1 iv once a day,1.782 ± 0.122 g
same,Inhibitory rate,H22 liver cancer; 90 mg·kg^−1 iv once a day,16.7%
same,Tumor weight,H22 liver cancer; 90 mg·kg^−1 iv once a day,1.956 ± 0.581 g
same,Inhibitory rate,H22 liver cancer; 100 mg·kg^−1 iv once a day,11.5%
same,Tumor weight,H22 liver cancer; 100 mg·kg^−1 iv once a day,2.078 ± 0.326 g
same,inhibitory action on KM mice-transplanted tumor of H22 liver cancer,H22 liver cancer; [1],obviously inhibitory action
same,Inhibitory rate,EMT-6 breast cancer; 1 mg·kg^−1 ip once a day,26.40%
same,Tumor weight,EMT-6 breast cancer; 1 mg·kg^−1 ip once a day,0.987 ± 0.154 g
same,Inhibitory rate,EMT-6 breast cancer; 5 mg·kg^−1 ip once a day,41.16%
same,Tumor weight,EMT-6 breast cancer; 5 mg·kg^−1 ip once a day,0.789 ± 0.087 g
same,Inhibitory rate,EMT-6 breast cancer; 10 mg·kg^−1 ip once a day,48.55%
same,Tumor weight,EMT-6 breast cancer; 10 mg·kg^−1 ip once a day,0.690 ± 0.188 g
same,Inhibitory rate,EMT-6 breast cancer; 20 mg·kg^−1 ip once a day,69.95%
same,Inhibitory rate,EMT-6 breast cancer; 30 mg·kg^−1 ip once a day,68.01%
same,Inhibitory rate,EMT-6 breast cancer; 40 mg·kg^−1 ip once a day,66.37%
same,Tumor weight,EMT-6 breast cancer; 40 mg·kg^−1 ip once a day,0.451 ± 0.097 g
same,Inhibitory rate,EMT-6 breast cancer; 50 mg·kg^−1 ip once a day,60.55%
same,Tumor weight,EMT-6 breast cancer; 50 mg·kg^−1 ip once a day,0.529 ± 0.168 g
same,Inhibitory rate,EMT-6 breast cancer; 60 mg·kg^−1 ip once a day,49.22%
same,Tumor weight,EMT-6 breast cancer; 60 mg·kg^−1 ip once a day,0.681 ± 0.156 g
same,Inhibitory rate,EMT-6 breast cancer; 70 mg·kg^−1 ip once a day,47.95%
same,Tumor weight,EMT-6 breast cancer; 70 mg·kg^−1 ip once a day,0.698 ± 0.112 g
same,Inhibitory rate,EMT-6 breast cancer; 80 mg·kg^−1 ip once a day,41.16%
same,Tumor weight,EMT-6 breast cancer; 80 mg·kg^−1 ip once a day,0.789 ± 0.087 g
same,Inhibitory rate,EMT-6 breast cancer; 90 mg·kg^−1 ip once a day,35.94%
same,Tumor weight,EMT-6 breast cancer; 90 mg·kg^−1 ip once a day,0.859 ± 0.0754 g
same,Inhibitory rate,EMT-6 breast cancer; 100 mg·kg^−1 ip once a day,25.80%
same,Tumor weight,EMT-6 breast cancer; 100 mg·kg^−1 ip once a day,0.995 ± 0.0256 g
same,inhibitory action on BABLc mice-transplanted tumor of EMT-6,EMT-6 breast cancer; [1],obviously inhibitory action
"O=C(/C=C/c1ccc(O)c(O)c1)O[C@@H]1C[C@](O)(C(=O)O)C[C@@H](O)[C@H]1O [Commercially available chlorogenic acid, chlorogenic acid, reference compound]",Inhibitory rate,H22 liver cancer; 1 mg·kg^−1 iv once a day,5.1%
same,Tumor weight,H22 liver cancer; 1 mg·kg^−1 iv once a day,2.228 ± 0.538 g
same,Inhibitory rate,H22 liver cancer; 5 mg·kg^−1 iv once a day,17.4%
same,Tumor weight,H22 liver cancer; 5 mg·kg^−1 iv once a day,1.939 ± 0.357 g
same,Inhibitory rate,"H22 liver cancer; 10 mg·kg^−1 iv once a day, listed as Commercially availaavailable chlorogenic",32.6%
same,Inhibitory rate,"H22 liver cancer; 20 mg·kg^−1 iv once a day, listed as Commercially availaavailable chlorogenic",31.8%
same,Inhibitory rate,H22 liver cancer; 30 mg·kg^−1 iv once a day,31.9%
same,Inhibitory rate,H22 liver cancer; 40 mg·kg^−1 iv once a day,28.1%
same,Inhibitory rate,H22 liver cancer; 50 mg·kg^−1 iv once a day,23.4%
same,Tumor weight,H22 liver cancer; 50 mg·kg^−1 iv once a day,1.799 ± 0.462 g
same,Inhibitory rate,H22 liver cancer; 60 mg·kg^−1 iv once a day,21.3%
same,Tumor weight,H22 liver cancer; 60 mg·kg^−1 iv once a day,1.848 ± 0.741 g
same,Inhibitory rate,H22 liver cancer; 70 mg·kg^−1 iv once a day,14.6%
same,Tumor weight,H22 liver cancer; 70 mg·kg^−1 iv once a day,2.005 ± 0.345 g
same,Inhibitory rate,H22 liver cancer; 80 mg·kg^−1 iv once a day,13.7%
same,Tumor weight,H22 liver cancer; 80 mg·kg^−1 iv once a day,2.026 ± 0.611 g
same,Inhibitory rate,H22 liver cancer; 90 mg·kg^−1 iv once a day,9.8%
same,Tumor weight,H22 liver cancer; 90 mg·kg^−1 iv once a day,2.118 ± 0.557 g
same,Inhibitory rate,H22 liver cancer; 100 mg·kg^−1 iv once a day,7.2%
same,Tumor weight,H22 liver cancer; 100 mg·kg^−1 iv once a day,2.179 ± 0.341 g
same,Inhibitory rate,EMT-6 breast cancer; 1 mg·kg^−1 ip once a day,3.13%
same,Tumor weight,EMT-6 breast cancer; 1 mg·kg^−1 ip once a day,1.299 ± 0.253 g
same,Inhibitory rate,EMT-6 breast cancer; 5 mg·kg^−1 ip once a day,4.18%
same,Tumor weight,EMT-6 breast cancer; 5 mg·kg^−1 ip once a day,1.285 ± 0.324 g
same,Inhibitory rate,EMT-6 breast cancer; 10 mg·kg^−1 ip once a day,5.00%
same,Tumor weight,EMT-6 breast cancer; 10 mg·kg^−1 ip once a day,1.274 ± 0.854 g
same,Inhibitory rate,EMT-6 breast cancer; 20 mg·kg^−1 ip once a day,10.44%
same,Inhibitory rate,EMT-6 breast cancer; 30 mg·kg^−1 ip once a day,11.63%
same,Inhibitory rate,EMT-6 breast cancer; 40 mg·kg^−1 ip once a day,16.11%
same,Inhibitory rate,EMT-6 breast cancer; 50 mg·kg^−1 ip once a day,16.85%
same,Inhibitory rate,EMT-6 breast cancer; 60 mg·kg^−1 ip once a day,24.76%
same,Tumor weight,EMT-6 breast cancer; 60 mg·kg^−1 ip once a day,1.009 ± 0.123 g
same,Inhibitory rate,EMT-6 breast cancer; 70 mg·kg^−1 ip once a day,6.49%
same,Tumor weight,EMT-6 breast cancer; 70 mg·kg^−1 ip once a day,1.254 ± 0.514 g
same,Inhibitory rate,EMT-6 breast cancer; 80 mg·kg^−1 ip once a day,4.62%
same,Tumor weight,EMT-6 breast cancer; 80 mg·kg^−1 ip once a day,1.279 ± 0143 g
same,Inhibitory rate,EMT-6 breast cancer; 90 mg·kg^−1 ip once a day,3.21%
same,Tumor weight,EMT-6 breast cancer; 90 mg·kg^−1 ip once a day,1.298 ± 0.423 g
same,Inhibitory rate,EMT-6 breast cancer; 100 mg·kg^−1 ip once a day,2.16%
same,Tumor weight,EMT-6 breast cancer; 100 mg·kg^−1 ip once a day,1.312 ± 0.087 g
